The values below come from PubChem BioAssay AID687005 (Broad Institute, 2013).

Records with an inconclusive call do not appear. Active and inactive are the calls of the source.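 The calls were made as follows: active = Compounds that reduce signal, with fitted half-maximal dose at or under twice the top valid tested dose; inconclusive = Poor fit, or flat curve losing 30 to 70% of signal; inactive = Potency past limit, flat within 30%, or opposite direction.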

One assay in a line: viability loss in HEK293T cells – cell-based, ATP luminescence, cherry-pick samples, cytotoxicity control, dose response (AID 687005). The settings on record: HEK293T viability, ATP luminescence (CellTiter-Glo), 48 h; at 23.5 µM (top of the series). A general note: Cellular ATP, detected with luciferase, serves as a proxy for viable cell number.
Turning to `CC(C)NC(=O)Nc1cccc2c1O[C@H](CN(C)C)[C@H](C)CN([C@H](C)CO)C2=O`, the activity change, negative = cytotoxicity was 7.48% (inactive).

Turning to `CCC(=O)N1[C@H](CO)[C@@H](c2ccc(-c3cccnc3)cc2)[C@@H]1CN(C)C(C)=O`, the activity change, negative = cytotoxicity is 3.73% (inactive).

Regarding `O=C(C[C@@H]1C[C@@H]2c3cc(NC(=O)Nc4ccc(F)cc4)ccc3O[C@@H]2[C@@H](CO)O1)NCC1CC1`, the activity change, negative = cytotoxicity was 26.7% (inactive).

The assay is the same for the next values; noted with them: HEK293T viability, ATP luminescence (CellTiter-Glo), 48 h; at 26 µM (top of the series).
Consider `O=C(C[C@@H]1CC[C@H](NC(=O)Cc2ccccn2)[C@H](CO)O1)NCCc1ccccc1`, for which the activity change, negative = cytotoxicity was -2.62% (inactive).

With `CC(=O)c1cccc(NC(=S)NC2CCCCC2)c1`, the activity change, negative = cytotoxicity is -7.11% (inactive).

Regarding `CNC[C@@H]1OCCCC[C@@H](C)Oc2ccc(NS(=O)(=O)c3ccc(Cl)cc3)cc2C(=O)N([C@H](C)CO)C[C@H]1C`, the activity change, negative = cytotoxicity was -31.3% (inactive).

In the case of `O=C([C@@H]1[C@@H](CO)[C@@H]2Cn3c(cccc3=O)[C@@H]2N1CCC(F)(F)F)N1CCCCC1`, the activity change, negative = cytotoxicity was 1.78% (inactive).

Take `COc1cccc(S(=O)(=O)N2C[C@@H](O)COC[C@H]3O[C@H](CC(=O)Nc4ccccc4)CC[C@@H]32)c1`: the activity change, negative = cytotoxicity is -41.6% (inactive).

Take `Cc1noc(C)c1NC(=O)N(C)C[C@@H]1Oc2ccc(NC(=O)C3CC3)cc2CC(=O)N([C@H](C)CO)C[C@@H]1C`: the activity change, negative = cytotoxicity is 30.7% (inactive).

Regarding `CC(C)NC(=O)N(C)C[C@H]1OCCCC[C@H](C)Oc2ccc(NC(=O)c3ccccc3)cc2C(=O)N([C@@H](C)CO)C[C@@H]1C`, the activity change, negative = cytotoxicity was 55.3% (inactive).

Take `Cc1noc(C)c1NC(=O)Nc1ccc2c(c1)C(=O)N([C@H](C)CO)C[C@H](C)[C@H](CN(C)CC1CCCCC1)O2`: the activity change, negative = cytotoxicity is 40.9% (inactive).

Consider `O=C(NC(=S)Nc1ccccc1N1CCCC1)c1ccc([N+](=O)[O-])cc1`, for which the activity change, negative = cytotoxicity is -8.4% (inactive).

Take `COc1ccc(NC(=O)N(C)C[C@@H]2OCCCC[C@H](C)Oc3ccc(NC(=O)Nc4ccc5c(c4)OCO5)cc3C(=O)N([C@H](C)CO)C[C@@H]2C)cc1`: the activity change, negative = cytotoxicity is 4.66% (inactive).

With `O=C(NC1CCCCC1)N[C@@H]1CC[C@@H](CCNS(=O)(=O)c2ccc(Cl)cc2)O[C@H]1CO`, the activity change, negative = cytotoxicity is 45.5% (inactive).

On to `CCCC#Cc1ccc2c(c1)O[C@@H](CN(C)C)[C@@H](C)CN([C@@H](C)CO)S2(=O)=O`, for which the activity change, negative = cytotoxicity was 13.6% (inactive).

As for `O=C(C[C@@H]1C=C[C@@H](NC(=O)Nc2cc(F)ccc2F)[C@H](CO)O1)NCCCN1CCOCC1`, the activity change, negative = cytotoxicity is 0.247% (inactive).

For the molecule `O=C(CSc1ncnc2c1cnn2-c1ccccc1)Nc1ccc2c(c1)OCO2`, the activity change, negative = cytotoxicity was 2.1% (inactive).

For the molecule `COc1ccccc1CNC(=O)COc1ccc2c(c1)CCC2`, the activity change, negative = cytotoxicity is 28.6% (inactive).

For `O=C(CCN1CCCCC1)NCC[C@@H]1CC[C@H](NC(=O)c2ccc(F)cc2)[C@@H](CO)O1`, the activity change, negative = cytotoxicity is 9.77% (inactive).

Consider `Cc1cc(C)c(NC(=O)C2CCCN2C)c(C)c1` (stereo unspecified), for which the activity change, negative = cytotoxicity is 10.5% (inactive).

As to `CO[C@@H]1CN(C)C(=O)c2cc(NC(=O)C3CC3)ccc2OC[C@H](C)N(C(=O)c2ccncc2)C[C@H]1C`, the activity change, negative = cytotoxicity was -22.9% (inactive).

For the molecule `CC(C)CC#Cc1cnc2c(c1)C(=O)N([C@H](C)CO)C[C@H](C)[C@@H](CN(C)Cc1cccc(F)c1)O2`, the activity change, negative = cytotoxicity is -9.35% (inactive).

In the case of `CC(C)NC(=O)Nc1ccc2c(c1)C(=O)N([C@@H](C)CO)C[C@@H](C)[C@H](CN(C)C(=O)c1ccncc1)OCCCC[C@H](C)O2`, the activity change, negative = cytotoxicity is 23.3% (inactive).

As to `CCCNC(=O)C[C@@H]1CC[C@@H]2[C@H](COc3ccc(NC(=O)CCC)cc3C(=O)N2C)O1`, the activity change, negative = cytotoxicity was 52.7% (inactive).

Turning to `COc1ccc(C#Cc2ccc3c(c2)O[C@H](CN(C)C(C)=O)[C@@H](C)CN([C@@H](C)CO)S3(=O)=O)cc1`, the activity change, negative = cytotoxicity is -74% (inactive).

With `CCN1C(=S)N[C@@H](c2cccc(F)c2)C(C(=O)OC)=C1C`, the activity change, negative = cytotoxicity was 5.06% (inactive).

Regarding `Cc1ccc(C2CC(c3cccs3)=NN2C(=O)c2ccc(Br)o2)cc1` (stereo unspecified), the activity change, negative = cytotoxicity was 39% (inactive).

For `COCC#Cc1cnc2c(c1)C(=O)N([C@@H](C)CO)C[C@@H](C)[C@@H](CN(C)C(=O)C1CC1)O2`, the activity change, negative = cytotoxicity was -14.4% (inactive).

Turning to `Cc1noc(C)c1NC(=O)Nc1ccc2c(c1)C(=O)N([C@@H](C)CO)C[C@H](C)[C@H](CN(C)S(=O)(=O)c1ccc(Cl)cc1)O2`, the activity change, negative = cytotoxicity was 8.28% (inactive).

As for `O=C(C[C@@H]1CC[C@H]2[C@@H](COC[C@@H](O)CN2C(=O)Nc2ccc(Cl)cc2)O1)NCCc1ccncc1`, the activity change, negative = cytotoxicity was -9.46% (inactive).

In the case of `C[C@@H]1CN([C@@H](C)CO)C(=O)Cc2cc(NC(=O)Nc3cccc4ccccc34)ccc2O[C@@H]1CN(C)Cc1ccc(C(=O)O)cc1`, the activity change, negative = cytotoxicity was 30.4% (inactive).

Regarding `Cc1cc(C)cc(OCC(=O)NC(C)c2ccccc2)c1` (stereo unspecified), the activity change, negative = cytotoxicity is 14.9% (inactive).

With `O=C(Nc1ccc(F)cc1)N1C[C@H]2[C@@H](c3ccccc31)[C@@H](CO)N2Cc1cocn1`, the activity change, negative = cytotoxicity was -16.4% (inactive).

As to `CCCN1C[C@H](C)[C@@H](OC)CN(C)C(=O)c2cc(NC(=O)c3cccc(F)c3)ccc2OC[C@H]1C`, the activity change, negative = cytotoxicity was 10.2% (inactive).

In the case of `N#C[C@H]1[C@@H](c2ccccc2)[C@@H](CO)N1C(=O)Cc1ccccc1`, the activity change, negative = cytotoxicity is -9.76% (inactive).

For `COC(=O)C1=C(C)N(Cc2ccc(Cl)cc2)C(=S)NC1c1ccc(F)cc1` (stereo unspecified), the activity change, negative = cytotoxicity is -32.8% (inactive).

Consider `CC(C)NC(=O)N(C)C[C@@H]1Oc2c(NC(=O)C3CCCCC3)cccc2C(=O)N([C@@H](C)CO)C[C@@H]1C`, for which the activity change, negative = cytotoxicity is 24.4% (inactive).

In the case of `CCNC(=O)CN(c1ccc(Cl)cc1)S(=O)(=O)c1ccccc1`, the activity change, negative = cytotoxicity was 4.12% (inactive).

With `C[C@H](CO)N1C[C@H](C)[C@H](CN(C)C(=O)Nc2cccc(F)c2)Oc2ncc(C#CCN(C)C)cc2C1=O`, the activity change, negative = cytotoxicity is -20.2% (inactive).

`C[C@H](NC(=O)C[C@H]1CC[C@@H](NC(=O)Cc2ccccn2)[C@@H](CO)O1)c1ccccc1`: the activity change, negative = cytotoxicity was 25.6% (inactive).

Consider `COc1ccccc1NC(=O)N[C@@H]1CC[C@H](CCn2cc(-c3ccccc3OC)nn2)O[C@H]1CO`, for which the activity change, negative = cytotoxicity is -11.8% (inactive).

Take `C/C=C/c1ccc([C@@H]2[C@@H](CO)N3CCCCN(C(=O)Nc4ccc(OC)cc4)C[C@H]23)cc1`: the activity change, negative = cytotoxicity was 48.4% (inactive).

Consider `CC(=O)N(C)C[C@H]1Oc2cc(C#Cc3ccc(F)cc3)ccc2S(=O)(=O)N([C@H](C)CO)C[C@@H]1C`, for which the activity change, negative = cytotoxicity was 53% (inactive).

On to `C[C@H]1CN([C@@H](C)CO)C(=O)Cc2cc(N(C)C)ccc2O[C@@H]1CN(C)C(=O)Nc1ccc(C(F)(F)F)cc1`, for which the activity change, negative = cytotoxicity is -28.9% (inactive).

For `Cc1cc(C(=O)Nc2cccc3c2O[C@H](CN(C)S(=O)(=O)c2ccccc2)[C@H](C)CN([C@H](C)CO)C3=O)n(C)n1`, the activity change, negative = cytotoxicity was 16.8% (inactive).

For `COc1ccc(CN(C)C[C@@H]2Oc3ccc(NC(=O)Nc4ccc(F)cc4)cc3CC(=O)N([C@H](C)CO)C[C@H]2C)cc1`, the activity change, negative = cytotoxicity was -7.45% (inactive).

`CC(=O)N1[C@@H]2c3ccc(-c4ccccc4)c(=O)n3C[C@H]1[C@H](CO)[C@H]2C(=O)Nc1ccccc1`: the activity change, negative = cytotoxicity was 17.2% (inactive).

For `O=C(O)C[C@@H]1CC[C@@H]2[C@H](COC[C@H](O)CN2S(=O)(=O)c2ccc(F)cc2)O1`, the activity change, negative = cytotoxicity was -25.9% (inactive).

Consider `CN(C[C@H]1N[C@@H](CO)[C@H]1c1ccc(-c2cccc(F)c2)cc1)S(C)(=O)=O`, for which the activity change, negative = cytotoxicity was 61.6% (inactive).

On to `Cc1cc(C)c(NC(=O)C2CCC(=O)N2)c(C)c1` (stereo unspecified), for which the activity change, negative = cytotoxicity is 12.8% (inactive).

In the case of `COCC(=O)N1[C@H](C#N)[C@H](c2ccc(C#Cc3ccccc3F)cc2)[C@H]1CO`, the activity change, negative = cytotoxicity was 8.29% (inactive).

`Cc1ccc(S(=O)(=O)N(C)C[C@H]2Oc3c(cccc3N(C)C)C(=O)N([C@@H](C)CO)C[C@H]2C)cc1`: the activity change, negative = cytotoxicity was -16.9% (inactive).

Take `O=C(C[C@@H]1CC[C@@H]2[C@H](COC[C@H](O)CN2Cc2cccc(C(F)(F)F)c2)O1)NCc1ccc(Cl)cc1`: the activity change, negative = cytotoxicity was 9.32% (inactive).

Consider `C[C@@H]1CN([C@H](C)CO)C(=O)c2c(c3ccccc3n2C)-c2ccccc2CO[C@H]1CN(C)S(=O)(=O)c1cccs1`, for which the activity change, negative = cytotoxicity was 1.01% (inactive).

Take `C[C@@H]1CN([C@@H](C)CO)C(=O)c2cccc(NC(=O)Nc3ccccc3)c2O[C@H]1CN(C)S(=O)(=O)c1cn(C)cn1`: the activity change, negative = cytotoxicity is 55.5% (inactive).

Regarding `CO[C@H](CN(C)Cc1ccc2c(c1)OCO2)[C@@H](C)CN(C(=O)c1ccccc1)[C@@H](C)CO`, the activity change, negative = cytotoxicity was -12.9% (inactive).

As for `C[C@H](O)C#Cc1ccc2c(c1)O[C@H](CN(C)Cc1ccncc1)[C@H](C)CN([C@H](C)CO)S2(=O)=O`, the activity change, negative = cytotoxicity was 29.2% (inactive).

Regarding `C[C@@H]1CN([C@@H](C)CO)C(=O)c2cc(NC(=O)C3CC3)ccc2O[C@H]1CN(C)Cc1ccc2c(c1)OCO2`, the activity change, negative = cytotoxicity was 9.22% (inactive).

Still in this assay, the particulars now being: HEK293T viability, ATP luminescence (CellTiter-Glo), 48 h; at 42 µM (top of the series).
With `Cc1ccc(NC(=O)C2(C)CCN2C(=O)CC2CC2)cc1C` (stereo unspecified), the activity change, negative = cytotoxicity is 22.8% (inactive).

Regarding `CCCC(=O)N1CCC1(C)C(=O)Nc1cc(C)ccc1C` (stereo unspecified), the activity change, negative = cytotoxicity is -18.3% (inactive).

`O=C(Cc1cccs1)N1CCN(c2ccccc2)CC1`: the activity change, negative = cytotoxicity is 21.1% (inactive).
